pIC50: −log10 of the molar value. Like-named read-outs stand apart in the source and are kept apart here.
Tests used:
MV-4-11 cells = experiment: Anti-proliferative activity against MV-4-11 cells (cell viability chemiluminescence); type: cell-based; details: MV-4-11 human monocytic leukemia cells, three days of exposure
Experimental: This study utilized a cell proliferation assay to analyze the cytotoxicity of MV-4-11 human monocytic leukemia cells after three days of exposure to NMT1 inhibitors. The MV-4-11 cell line was purchased from Nanjing Cobuilder Biotechnology Co., Ltd., and cultured in IMDM medium (Viva cell) in an incubator (Thermo) at 37 °C with 5% CO2. In this experiment, NMT1 inhibitors were dissolved in DMSO to obtain 600 µM stock solutions. Dose-response solutions were prepared with a top endpoint compound concentration of 3 µM, followed by three-fold serial dilutions in DMSO, totaling eight data points. The final concentration of DMSO was 0.5%.
MV-4-11 cells were seeded into a white 96-well plate, 80 µL of cell suspension per well, containing 6000 MV-4-11 cells. The cell plate was placed in the CO2 incubator for overnight culture. Then, 20 µL of NMT1 inhibitor solutions at different concentrations were added to the wells. The 96-well plate was placed back into the incubator for three days. Another cell plate was prepared, and the signal was read on the day of drug addition to serve as the maximum value (Max value in the equation below) for data analysis. To this cell plate, 25 µL of cell viability chemiluminescence detection reagent was added per well, followed by incubation at room temperature for 10 minutes to stabilize the luminescence signal. A multi-label analyzer was used for reading.
The raw data were converted into inhibition rates using the equation (Sample - Min) / (Max - Min) * 100%. The IC50 values were then determined by fitting a four-parameter curve (using the "log(inhibitor) vs. response - Variable slope" model in GraphPad Prism). Min: wells treated with 0.5% DMSO; Max: Day 0 wells. Table 1 provides the inhibitory activity of the compounds of the invention on MV-4-11 cell proliferation. Table 1: Compound Inhibitory Activity against NMT1 Enzyme (IC50) and Anti-proliferative Activity against MV-4-11 Cell line (IC50)

NMT1 enzyme = biological target: T1, NMT1 enzyme (Homo sapiens, UniProt P30419); experiment: Inhibitory activity on NMT1 enzyme catalysis (fluorescence intensity assay); type: biochemical
T1 sequence (P30419 1-496): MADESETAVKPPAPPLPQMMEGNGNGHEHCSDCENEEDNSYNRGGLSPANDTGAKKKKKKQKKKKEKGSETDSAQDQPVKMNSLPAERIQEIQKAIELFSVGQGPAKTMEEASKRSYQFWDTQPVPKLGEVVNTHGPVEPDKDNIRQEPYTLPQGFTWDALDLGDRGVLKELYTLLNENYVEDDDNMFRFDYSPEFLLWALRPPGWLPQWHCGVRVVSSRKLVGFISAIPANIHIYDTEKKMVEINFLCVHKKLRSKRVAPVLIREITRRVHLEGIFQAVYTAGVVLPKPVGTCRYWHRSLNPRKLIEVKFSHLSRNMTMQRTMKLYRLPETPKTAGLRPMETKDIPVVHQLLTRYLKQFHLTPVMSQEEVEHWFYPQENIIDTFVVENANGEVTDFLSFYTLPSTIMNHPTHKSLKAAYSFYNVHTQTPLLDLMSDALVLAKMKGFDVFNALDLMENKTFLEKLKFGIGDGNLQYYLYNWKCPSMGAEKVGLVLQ
Experimental: This study evaluated the ability of the compounds of the invention to inhibit NMT1 catalytic activity in vitro. […] The final concentration of the NMT1 enzyme was 6 nM, the final concentration of CPM (Reactive thiol fluorescence probe, Invitrogen, D346) was 1 µM, the final concentration of HSPP60 SRC was 20 µM, and the final concentration of DMSO was 0.5%.
Compounds were dissolved in DMSO to obtain 10 mM stock solutions. Dose-response solutions were prepared with a top endpoint compound concentration of 3 mM, followed by three-fold serial dilutions in DMSO, totaling ten data points. […] Then, 2.5 µL of the NMT1 enzyme working solution was added to the 384-well assay plate, followed by incubation at 25 °C for 10 minutes. Subsequently, 5 µL of the CPM and myristoyl-CoA working solution was added, the plate was centrifuged at 1000 rpm for 1 minute, and then 2.5 µL of the HSPP60 SRC working solution was added to initiate the reaction. The reaction was incubated at 25 °C for 45 minutes.
The IC50 curve of the compounds was fitted using the software XLfit 5.5.0 according to the nonlinear regression equation.

[1] = 6 nM NMT1 enzyme, 1.25 µM myristoyl-CoA, 20 µM HSPP60 SRC peptide, 45 minutes at 25 °C, read-out: NMT1 (IC50)

## Cc1c(NS(=O)(=O)c2c(Cl)cc(-c3ccc4sc5c(c4c3)CNCC5)cc2Cl)c(C2CC2)nn1C [Compound 4]
MV-4-11 cells; MV4-11, 72 h
  pIC50: 7.59
NMT1 enzyme; [1]
  pIC50: 8.44

## Cc1c(NS(=O)(=O)c2c(Cl)cc(-c3ccc4sc5c(c4c3)CNCC5)cc2Cl)c(CO)nn1C [Compound 14]
MV-4-11 cells; MV4-11, 72 h
  pIC50: 6.84
NMT1 enzyme; [1]
  pIC50: 8.10

## COCc1nn(C)c(C)c1NS(=O)(=O)c1c(Cl)cc(-c2ccc3sc4c(c3c2)CNCC4)cc1Cl [Compound 15]
MV-4-11 cells; Homo sapiens, MV4-11, 72 h
  pIC50: 7.10
NMT1 enzyme
  pIC50: 8.33

## Cc1c(NS(=O)(=O)c2c(Cl)cc(-c3ccc4sc5c(c4c3)CNCC5)cc2Cl)c(CF)nn1C [Compound 16]
MV-4-11 cells; MV4-11, 72 h
  pIC50: 7.23
NMT1 enzyme; [1]
  pIC50: 8.33

## CCc1nn(C)c(C)c1NS(=O)(=O)c1c(Cl)cc(-c2ccc3oc4c(c3c2)CNCC4)cc1Cl [Compound 46]
MV-4-11 cells; MV4-11, 72 h
  pIC50: 7.73
NMT1 enzyme; [1]
  pIC50: 8.40

## Cc1nn(C)c(C)c1NS(=O)(=O)c1c(Cl)cc(-c2ccc3oc4c(c3c2)CNCC4)cc1Cl [Compound 47]
MV-4-11 cells; MV4-11, 72 h
  pIC50: 7.64
NMT1 enzyme; [1]
  pIC50: 8.38

## Cc1c(NS(=O)(=O)c2c(Cl)cc(-c3ccn4nc5c(c4c3)CNCC5)cc2Cl)c(CC(C)C)nn1C [Compound 48]
MV-4-11 cells; MV4-11, 72 h
  pIC50: 7.44
NMT1 enzyme; [1]
  pIC50: 8.38

## CCc1nn(C)c(C)c1NS(=O)(=O)c1c(Cl)cc(-c2ccn3nc4c(c3c2)CNCC4)cc1Cl [Compound 49]
MV-4-11 cells; MV4-11, 72 h
  pIC50: 7.77
NMT1 enzyme; [1]
  pIC50: 8.44

## Cc1nn(C)c(C)c1NS(=O)(=O)c1c(Cl)cc(-c2ccn3nc4c(c3c2)CNCC4)cc1Cl [Compound 50]
MV-4-11 cells; MV4-11, 72 h
  pIC50: 7.66
NMT1 enzyme; [1]
  pIC50: 8.42

## CCc1nn(C)c(C)c1NS(=O)(=O)c1c(Cl)cc(-c2ccc3sc4c(c3c2)CCNC4)cc1Cl [Compound 55]
MV-4-11 cells; MV4-11, 72 h
  pIC50: 7.58
NMT1 enzyme; [1]
  pIC50: 8.40

## Cc1nn(C)c(C)c1NS(=O)(=O)c1c(Cl)cc(-c2ccc3sc4c(c3c2)CCNC4)cc1Cl [Compound 56]
MV-4-11 cells; MV4-11, 72 h
  pIC50: 7.53
NMT1 enzyme; [1]
  pIC50: 8.38

## Cc1c(NS(=O)(=O)c2c(Cl)cc(-c3ccc4c(c3)N3CCNC[C@H]3CO4)cc2Cl)c(CC(C)C)nn1C [Compound 57]
MV-4-11 cells; Homo sapiens, MV4-11, 72 h
  pIC50: 6.84
NMT1 enzyme
  pIC50: 8.06

## Cc1c(NS(=O)(=O)c2c(Cl)cc(-c3ccc4c(c3)N3CCNC[C@@H]3CO4)cc2Cl)c(CC(C)C)nn1C [Compound 60]
MV-4-11 cells; Homo sapiens, MV4-11, 72 h
  pIC50: 6.82
NMT1 enzyme
  pIC50: 8.10

## Cc1c(NS(=O)(=O)c2c(Cl)cc(N3CCc4sc5c(c4C3)CNCC5)cc2Cl)c(CC(C)C)nn1C [Compound 63, 2,6-dichloro-4-(3,4,6,7,8,9-hexahydrothieno[3,2-c:4,5-c']dipyridine-2(1H)-yl)-N-(3-isobutyl-1,5-dimethyl-1H-pyrazol-4-yl)benzenesulfonamide]
MV-4-11 cells; MV4-11, 72 h
  pIC50: 7.78
NMT1 enzyme; [1]
  pIC50: 8.47

## CCc1nn(C)c(C)c1NS(=O)(=O)c1c(Cl)cc(N2CCc3sc4c(c3C2)CNCC4)cc1Cl [Compound 64]
MV-4-11 cells; MV4-11, 72 h
  pIC50: 8.13
NMT1 enzyme; [1]
  pIC50: 8.53

## Cc1nn(C)c(C)c1NS(=O)(=O)c1c(Cl)cc(N2CCc3sc4c(c3C2)CNCC4)cc1Cl [Compound 65]
MV-4-11 cells; MV4-11, 72 h
  pIC50: 7.68
NMT1 enzyme; [1]
  pIC50: 8.45

## Cc1c(NS(=O)(=O)c2c(Cl)cc(N3CCn4nc5c(c4C3)CNCC5)cc2Cl)c(CC(C)C)nn1C [Compound 69]
MV-4-11 cells; MV4-11, 72 h
  pIC50: 7.66
NMT1 enzyme; [1]
  pIC50: 8.43

## CCc1nn(C)c(C)c1NS(=O)(=O)c1c(Cl)cc(N2CCn3nc4c(c3C2)CNCC4)cc1Cl [Compound 70]
MV-4-11 cells; MV4-11, 72 h
  pIC50: 7.82
NMT1 enzyme; [1]
  pIC50: 8.46

## Cc1nn(C)c(C)c1NS(=O)(=O)c1c(Cl)cc(N2CCn3nc4c(c3C2)CNCC4)cc1Cl [Compound 71]
MV-4-11 cells; MV4-11, 72 h
  pIC50: 7.59
NMT1 enzyme; [1]
  pIC50: 8.42

## Cc1nn(C)c(C)c1NS(=O)(=O)c1ccc(-c2ccc3sc4c(c3c2)CNCC4)cc1Cl [Compound B1]
MV-4-11 cells; MV4-11, 72 h
  pIC50: 7.84
NMT1 enzyme; [1]
  pIC50: 8.57

## Cc1nn(C)c(C)c1NS(=O)(=O)c1ccc(-c2ccc3oc4c(c3c2)CNCC4)cc1Cl [Compound B3]
MV-4-11 cells; MV4-11, 72 h
  pIC50: 7.66
NMT1 enzyme; [1]
  pIC50: 8.51

## Cc1nn(C)c(C)c1NS(=O)(=O)c1ccc(-c2ccc3sc4c(c3c2)CNCC4)cc1 [Compound B4]
MV-4-11 cells; MV4-11, 72 h
  pIC50: 7.80
NMT1 enzyme; [1]
  pIC50: 8.53

## Cc1nn(C)c(C)c1NS(=O)(=O)c1ccc(-c2ccc3oc4c(c3c2)CNCC4)cc1 [Compound B6]
MV-4-11 cells; MV4-11, 72 h
  pIC50: 7.63
NMT1 enzyme; [1]
  pIC50: 8.42

## CCc1nn(C)c(C)c1NS(=O)(=O)c1ccc(-c2ccc3sc4c(c3c2)CNCC4)cc1Cl [Compound B7]
MV-4-11 cells; MV4-11, 72 h
  pIC50: 8.01
NMT1 enzyme; [1]
  pIC50: 8.53

## CCc1nn(C)c(C)c1NS(=O)(=O)c1ccc(-c2ccc3oc4c(c3c2)CNCC4)cc1Cl [Compound B9]
MV-4-11 cells; MV4-11, 72 h
  pIC50: 7.87
NMT1 enzyme; [1]
  pIC50: 8.60

## CCc1nn(C)c(C)c1NS(=O)(=O)c1ccc(-c2ccc3sc4c(c3c2)CNCC4)cc1 [Compound B10]
MV-4-11 cells; MV4-11, 72 h
  pIC50: 8.00
NMT1 enzyme; [1]
  pIC50: 8.62

## CCc1nn(C)c(C)c1NS(=O)(=O)c1ccc(-c2ccc3oc4c(c3c2)CNCC4)cc1 [Compound B12]
MV-4-11 cells; MV4-11, 72 h
  pIC50: 7.75
NMT1 enzyme; [1]
  pIC50: 8.53

## Cc1c(NS(=O)(=O)c2ccc(-c3ccc4oc5c(c4c3)CNCC5)cc2Cl)c(CC(C)C)nn1C [Compound B14]
MV-4-11 cells; MV4-11, 72 h
  pIC50: 7.59
NMT1 enzyme; [1]
  pIC50: 8.51

## Cc1c(NS(=O)(=O)c2ccc(-c3ccc4oc5c(c4c3)CNCC5)cc2)c(CC(C)C)nn1C [Compound B16]
MV-4-11 cells; MV4-11, 72 h
  pIC50: 7.49
NMT1 enzyme; [1]
  pIC50: 8.42

## Cc1c(NS(=O)(=O)c2ccc(-c3ccc4sc5c(c4c3)CNCC5)cc2Cl)c(CC#N)nn1C [Compound B19]
MV-4-11 cells; MV4-11, 72 h
  pIC50: 7.66
NMT1 enzyme; [1]
  pIC50: 8.51

## Cc1c(NS(=O)(=O)c2ccc(-c3ccc4sc5c(c4c3)CCNC5)cc2Cl)c(CC#N)nn1C [Compound B20]
MV-4-11 cells; MV4-11, 72 h
  pIC50: 7.46
NMT1 enzyme; [1]
  pIC50: 8.45

## Cc1c(NS(=O)(=O)c2c(Cl)cc(-c3ccc4sc5c(c4c3)CCNC5)cc2Cl)c(CC2CC2)nn1C [Compound B25]
MV-4-11 cells; Homo sapiens, MV4-11, 72 h
  pIC50: 7.98
NMT1 enzyme; read-out: NMT1 (IC50), 6 nM NMT1 enzyme, 1.25 µM myristoyl-CoA, 20 µM HSPP60 SRC peptide, 45 minutes at 25 °C
  pIC50: 8.58

## Cc1c(NS(=O)(=O)c2ccc(-c3ccc4sc5c(c4c3)CNCC5)cc2Cl)c(CC2CC2)nn1C [Compound B27]
MV-4-11 cells; MV4-11, 72 h
  pIC50: 8.01
NMT1 enzyme; [1]
  pIC50: 8.68

## Cc1c(NS(=O)(=O)c2ccc(-c3ccc4oc5c(c4c3)CNCC5)cc2Cl)c(CC2CC2)nn1C [Compound B29]
MV-4-11 cells; MV4-11, 72 h
  pIC50: 7.76
NMT1 enzyme; [1]
  pIC50: 8.44

## Cc1c(NS(=O)(=O)c2ccc(-c3ccc4sc5c(c4c3)CCNC5)cc2Cl)c(CC(F)F)nn1C [Compound B60]
MV-4-11 cells; MV4-11, 72 h
  pIC50: 7.20

## Cc1c(NS(=O)(=O)c2c(Cl)cc(-c3ccnc(N4CCNCC4)c3)cc2Cl)c(CC(C)C)nn1C [PCLX-001, reference compound]
MV-4-11 cells; Homo sapiens, MV4-11, 72 h
  pIC50: 7.12
MV-4-11 cells
  pIC50: 7.13
